What was measured:
[1] = target: T1, human STAT6 (truncated, aa122-658, with N-terminal His-tag) (Homo sapiens, UniProt P42226); assay: Surface Plasmon Resonance (SPR) assay: binding of compounds to immobilized human STAT6; settings: immobilized human STAT6 (aa122-658), 25° C.; geometric mean
T1 construct: Human STAT6 (truncated, aa122-658, with N-terminal His-tag, expressed in insect cells); His-tag (N); made in house; host or cells: insect cells
T1 sequence (P42226 122-658): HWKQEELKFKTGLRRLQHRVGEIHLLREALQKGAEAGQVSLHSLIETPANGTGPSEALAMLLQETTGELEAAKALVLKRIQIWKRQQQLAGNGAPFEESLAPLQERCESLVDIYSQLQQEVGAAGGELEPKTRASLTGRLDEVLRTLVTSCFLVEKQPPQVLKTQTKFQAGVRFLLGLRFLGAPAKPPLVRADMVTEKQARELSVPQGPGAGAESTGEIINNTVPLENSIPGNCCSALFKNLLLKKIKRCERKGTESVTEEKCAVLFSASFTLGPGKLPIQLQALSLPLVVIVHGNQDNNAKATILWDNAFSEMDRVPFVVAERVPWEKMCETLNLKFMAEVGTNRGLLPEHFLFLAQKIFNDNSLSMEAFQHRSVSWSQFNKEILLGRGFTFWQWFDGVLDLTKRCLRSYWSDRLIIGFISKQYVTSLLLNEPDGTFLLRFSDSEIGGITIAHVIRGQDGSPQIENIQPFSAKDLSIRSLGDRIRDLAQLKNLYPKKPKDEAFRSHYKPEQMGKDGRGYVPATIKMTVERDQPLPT
Method: SPR was used to confirm and quantify binding of compounds to human STAT6. Biacore instruments from the 8K-series (Cytiva) were used, and measurements were performed at 25° C. Human STAT6 (truncated, aa122-658, with N-terminal His-tag, expressed in insect cells) was immobilized in the active flow cells on a CM5 chip using amine-coupling (default settings) at 10 μg/ml in 10 mM acetate buffer pH 5.5, at a contact time of 120-420 sec. and a flow rate of […]. Reference flow cells were deactivated using blank immobilization. PBS-P+ (Cytiva) supplemented with 2% DMSO was used as running buffer, and solvent correction was applied. Compounds were tested by multi-cycle kinetics injections using a contact time of 60 sec., dissociation time of up to 300 sec., and a flow rate of […].
Solvent-corrected, reference-subtracted and blank-corrected data was processed and binding isotherms were fitted according to a single report point from each sensorgram (Standard: Late binding (5 sec. before injection end); alternative: Earlier report point according to binding profile). Data fitting was done both with unfixed Rmax and with Rmax fixed to the theoretical value* assuming 1:1 binding to allow processing of data from both weak and strong binders as well as to evaluate binding stoichiometry.
Positive controls were run at the beginning, during, and at the end of the screen to evaluate surface activity. Generally surface activity was only affected to a minor degree, and no corrections were applied.
*Equation for calculation of the theoretical Rmax (Theoretical Rmax=(MW Analyte/MW Ligand) x immobilization level).
The sensorgrams for Examples 2a1, 2t1, 2m1, and 2a2 are shown below (where RU is plotted vs. time in seconds; dotted lines/points were excluded from the analysis due to effects from non-specific binding).

[2] = target: T2, STAT6 (endogenous, HiBiT-tagged) in HeLa LgBiT clone 4.14 cells (Homo sapiens, UniProt P42226); assay: STAT6 Degrader Assay (HiBiT based, HeLa LgBiT clone 4.14 cells, luminescence, DC50); type: cell-based; settings: geometric mean; for DC50: DC50 provided for test compounds with >80% Emax, read-out: STAT6 degradation DC50; for Emax: Emax provided for test compounds with <80% Emax (and 2c15), read-out: STAT6 degradation Emax
T2 construct: These cells express endogenous STAT6; host or cells: HeLa LgBiT clone 4.14
T2 sequence (P42226 1-847): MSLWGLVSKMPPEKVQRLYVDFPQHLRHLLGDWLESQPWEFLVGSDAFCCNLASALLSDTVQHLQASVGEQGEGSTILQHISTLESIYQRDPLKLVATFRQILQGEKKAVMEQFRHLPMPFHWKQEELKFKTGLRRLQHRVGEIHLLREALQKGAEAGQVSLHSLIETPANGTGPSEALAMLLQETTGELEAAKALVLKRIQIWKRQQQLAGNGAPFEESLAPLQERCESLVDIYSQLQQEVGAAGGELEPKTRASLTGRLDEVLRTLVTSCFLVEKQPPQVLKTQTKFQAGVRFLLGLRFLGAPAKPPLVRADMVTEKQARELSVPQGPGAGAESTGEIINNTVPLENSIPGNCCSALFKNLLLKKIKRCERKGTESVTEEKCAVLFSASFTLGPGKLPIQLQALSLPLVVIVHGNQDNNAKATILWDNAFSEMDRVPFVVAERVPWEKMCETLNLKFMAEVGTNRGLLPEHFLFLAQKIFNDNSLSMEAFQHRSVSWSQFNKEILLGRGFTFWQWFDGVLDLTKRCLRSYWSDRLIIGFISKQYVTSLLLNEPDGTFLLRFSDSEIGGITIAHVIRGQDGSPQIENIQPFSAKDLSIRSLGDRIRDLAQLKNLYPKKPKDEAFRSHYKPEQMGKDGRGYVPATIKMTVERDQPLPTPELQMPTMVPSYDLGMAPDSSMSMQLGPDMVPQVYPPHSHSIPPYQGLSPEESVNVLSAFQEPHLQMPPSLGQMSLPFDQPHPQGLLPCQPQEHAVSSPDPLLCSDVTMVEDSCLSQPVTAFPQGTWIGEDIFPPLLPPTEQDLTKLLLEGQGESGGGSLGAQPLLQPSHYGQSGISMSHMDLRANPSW
Summary of the method: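 HeLa LgBiT clone 4.14 cells carry CRISPR-inserted HiBiT on endogenous STAT6; 5000 cells/well were exposed to compound for 4-24 h at 37 °C, 5% CO2. Nano-Glo substrate added for 0.5 h; luminescence reflects remaining STAT6, with terfenadine ([…]) wells defining 100% degradation.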

[3] = test system: Eotaxin-3 (CCL26) release in human whole blood stimulated with IL-4; assay: Human Whole Blood Eotaxin-3 Assay (IL-4 stimulated, inhibition of eotaxin-3 release); type: cell-based; settings: Homo sapiens, EC50 provided for test compounds with >80% Emax, geometric mean across assay runs and batches
Summary of the method: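 Lithium-heparin human whole blood preincubated 2 h at 37 °C with compounds (4-fold serial dilution, triplicate, 0.5% DMSO final), then stimulated with 400 pM IL-4 for 48 h. Eotaxin-3 (CCL26) in supernatant quantified by MSD immunoassay.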

Compound	Kd [1] [nM]	DC50 [2] [nM]	Emax [2] [%]	EC50 [3] [nM]
Cn1c(CN2CCC(c3ccc(C(=O)N4CCN(C(=O)CN5CCC(c6ccc(NC7CCC(=O)NC7=O)cc6F)CC5)CC4)cc3)CC2)cc2c(-c3ccc4[nH]ncc4c3)ccnc21 (centres unmarked) [Example 2a1, 3-((4-(1-(2-(4-(4-(1-((4-(1H-indazol-5-yl)-1-methyl-1H-pyrrolo[2,3-b]pyridin-2-yl)methyl)-piperidin-4-yl)benzoyl)piperazin-1-yl)-2-oxoethyl)piperidin-4-yl)-3-fluorophenyl)amino)piperidine-2,6-dione]	224	4.9	–	–
Cn1c(CN2CCC(c3ccc(C(=O)N4CCN(C(=O)CN5CCN(c6ccc(NC7CCC(=O)NC7=O)cc6F)CC5)CC4)cc3)CC2)cc2c(-c3ccc4[nH]ncc4c3)ccnc21 (centres unmarked) [Example 2a2, 3-((4-(4-(2-(4-(4-(1-((4-(1H-indazol-5-yl)-1-methyl-1H-pyrrolo[2,3-b]pyridin-2-yl)methyl)-piperidin-4-yl)benzoyl)piperazin-1-yl)-2-oxoethyl)piperazin-1-yl)-3-fluorophenyl)amino)piperidine-2,6-dione]	61.2	–	60 to 70	–
Cn1c(CN2CCC(c3ccc(C(=O)N4CCn5nc(CN6CCC(c7ccc(NC8CCC(=O)NC8=O)cc7F)CC6)cc5C4)cc3)CC2)cc2c(-c3ccc(N)nc3)ccnc21 (centres unmarked) [Example 2q4, 3-((4-(1-((5-(4-(1-((4-(6-aminopyridin-3-yl)-1-methyl-1H-pyrrolo[2,3-b]pyridin-2-yl)methyl)-piperidin-4-yl)benzoyl)-4,5,6,7-tetrahydropyrazolo[1,5-a]pyrazin-2-yl)methyl)piperidin-4-yl)-3-fluoro-phenyl)amino)piperidine-2,6-dione]	–	–	70 to 80	73.5
C[C@@H](c1cc2c(-c3ccc(N)nc3)ccnc2n1C)N1CCC(c2ccc(C(=O)N3CCn4nc(CN5CCC(c6ncc(NC7CCC(=O)NC7=O)cc6F)CC5)cc4C3)cc2)CC1 (stereo partly drawn) [Example 2q6, 3-((6-(1-((5-(4-(1-((S)-1-(4-(6-aminopyridin-3-yl)-1-methyl-1H-pyrrolo[2,3-b]pyridin-2-yl)ethyl)-piperidin-4-yl)benzoyl)-4,5,6,7-tetrahydropyrazolo[1,5-a]pyrazin-2-yl)methyl)piperidin-4-yl)-5-fluoropyridin-3-yl)amino)piperidine-2,6-dione]	–	5.6	–	19.9
C[C@@H](c1cc2c(-c3ccc(N)nc3)ccnc2n1C)N1CCC(c2ccc(C(=O)N3CCn4nc(CN5CCN(c6ncc(NC7CCC(=O)NC7=O)cc6F)CC5)cc4C3)cc2)CC1 (stereo partly drawn) [Example 2q14, 3-((6-(4-((5-(4-(1-((S)-1-(4-(6-aminopyridin-3-yl)-1-methyl-1H-pyrrolo[2,3-b]pyridin-2-yl)ethyl)-piperidin-4-yl)benzoyl)-4,5,6,7-tetrahydropyrazolo[1,5-a]pyrazin-2-yl)methyl)piperazin-1-yl)-5-fluoropyridin-3-yl)amino)piperidine-2,6-dione]	–	24.7	–	86.7
COCc1nc2cc(-c3ccnc4c3cc([C@H](C)N3CCC(c5ccc(C(=O)N6CCC(CN7CCN(c8ncc(NC9CCC(=O)NC9=O)cc8F)C[C@H]7C)CC6)cc5)CC3)n4C)ccc2[nH]1 (some centres unmarked) [Example 3t5]	–	6	–	59.5

More lines, in order of falling DC50 [2], values ahead:

Kd [1] [nM]	DC50 [2] [nM]	Emax [2] [%]	EC50 [3] [nM]	Compound
–	2.9	–	26.7	C[C@@H](c1cc2c(-c3ccc(N)nc3)ccnc2n1C)N1CCC(c2ccc(C(=O)N3CCn4nc(CN5CCC(c6ccc(NC7CCC(=O)NC7=O)cc6F)C(F)(F)C5)cc4C3)cc2)CC1 (stereo partly drawn) [Example 2q9, 3-((4-(1-((5-(4-(1-((S)-1-(4-(6-aminopyridin-3-yl)-1-methyl-1H-pyrrolo[2,3-b]pyridin-2-yl)-ethyl)piperidin-4-yl)benzoyl)-4,5,6,7-tetrahydropyrazolo[1,5-a]pyrazin-2-yl)methyl)-3,3-difluoro-piperidin-4-yl)-3-fluorophenyl)amino)piperidine-2,6-dione]
–	2.7	–	11.3	Cn1c(CN2CCC(c3ccc(C(=O)N4CCn5nc(CN6CCC(c7ccc(NC8CCC(=O)NC8=O)cc7F)CC6)cc5C4)cc3)CC2)cc2c(-c3ccc4[nH]ncc4c3)ccnc21 (centres unmarked) [Example 2q3, 3-((4-(1-((5-(4-(1-((4-(1H-indazol-5-yl)-1-methyl-1H-pyrrolo[2,3-b]pyridin-2-yl)methyl)-piperidin-4-yl)benzoyl)-4,5,6,7-tetrahydropyrazolo[1,5-a]pyrazin-2-yl)methyl)piperidin-4-yl)-3-fluorophenyl)amino)piperidine-2,6-dione]
–	2.6	–	2.4	COCc1nc2cc(-c3ccnc4c3cc(CN3CCC(c5ccc(C(=O)N6CCn7nc(CN8CCC(c9ccc(NC%10CCC(=O)NC%10=O)cc9F)CC8)cc7C6)cc5)CC3)n4C)ccc2[nH]1 (centres unmarked) [Example 2q7, 3-((3-fluoro-4-(1-((5-(4-(1-((4-(2-(methoxymethyl)-1H-benzo[d]imidazol-5-yl)-1-methyl-1H-pyrrolo[2,3-b]pyridin-2-yl)methyl)piperidin-4-yl)benzoyl)-4,5,6,7-tetrahydropyrazolo[1,5-a]pyrazin-2-yl)-methyl)piperidin-4-yl)phenyl)amino)piperidine-2,6-dione]
–	1	–	2.3	C[C@@H](c1cc2c(-c3ccc(N)nc3)ccnc2n1C)N1CCC(c2ccc(C(=O)N3CCn4nc(CN5CCC(c6ccc(NC7CCC(=O)NC7=O)cc6F)CC5)cc4C3)cc2)CC1 (stereo partly drawn) [Example 2q5, 3-((4-(1-((5-(4-(1-((S)-1-(4-(6-aminopyridin-3-yl)-1-methyl-1H-pyrrolo[2,3-b]pyridin-2-yl)ethyl)-piperidin-4-yl)benzoyl)-4,5,6,7-tetrahydropyrazolo[1,5-a]pyrazin-2-yl)methyl)piperidin-4-yl)-3-fluorophenyl)-amino)piperidine-2,6-dione]

Reference: patent publication US20260014147A1, “STAT6 DEGRADERS” (Gilead Sciences, Inc., priority 2024, published 2026)
